# Test results published in PubChem BioAssay (NCI).
#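 Five concentrations, 48 hours, 96-well plates. GI50 = concentration required for 50% inhibition of growth. TGI marks complete inhibition of growth.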
# Legend:
# Test in all cases: NCI-60 cell line screen, 48 h
# [1] = system: COLO 205 colon
# [2] = system: MDA-MB-435
# [3] = system: SF-295 CNS
# [4] = system: KM12 colon
# [5] = system: HCC-2998 colon
# [6] = system: HT29 colon
# [7] = system: HL-60(TB) leukemia
# [8] = system: BT-549 breast
# [9] = system: NCI-H460 lung
# [10] = system: OVCAR-4 ovarian
# [11] = system: SNB-19 CNS
# [12] = system: M14 melanoma
# [13] = system: SK-MEL-2 melanoma
# [14] = system: HOP-92 NSCLC
# [15] = system: NCI-H23 lung
# [16] = system: HOP-62 NSCLC
# [17] = system: SR leukemia
# [18] = system: SNB-75 CNS
# [19] = system: MALME-3M melanoma
# [20] = system: HCT-15 colon
# [21] = system: NCI/ADR-RES ovarian
# [22] = system: SK-OV-3 ovarian
# [23] = system: DU-145 prostate
# [24] = system: LOX IMVI melanoma
# [25] = system: RXF 393 renal
# [26] = system: IGROV1 ovarian
# [27] = system: HCT-116 colon
structure (smiles),measurement,setting,value
Oc1ccccc1CNCC12CC3CC(CC(C3)C1)C2,TGI,[1],31 µM
same,GI50,[2],18.6 µM
same,TGI,[2],43.7 µM
same,GI50,[3],19.3 µM
same,TGI,[3],42.2 µM
same,GI50,[4],23.7 µM
same,TGI,[4],66 µM
same,GI50,[5],12.2 µM
same,TGI,[5],26.9 µM
same,GI50,[6],15.2 µM
same,TGI,[6],47.7 µM
same,GI50,[7],22 µM
same,TGI,[7],53.3 µM
same,GI50,[8],14 µM
same,TGI,[8],74.8 µM
same,GI50,[9],23.3 µM
same,TGI,[9],57.7 µM
same,GI50,[10],48.8 µM
same,TGI,[10],> 100 µM
same,GI50,[11],60.3 µM
same,TGI,[11],> 100 µM
same,GI50,[12],15.7 µM
same,TGI,[12],38.3 µM
same,GI50,[13],20.2 µM
same,TGI,[13],41.2 µM
same,GI50,[14],9.64 µM
same,TGI,[14],37.9 µM
same,GI50,[15],32.4 µM
same,TGI,[15],> 100 µM
same,GI50,[16],28.8 µM
same,TGI,[16],84 µM
same,GI50,[17],20.4 µM
same,TGI,[17],58.6 µM
same,GI50,[18],34.9 µM
same,TGI,[18],> 100 µM
same,GI50,[19],21.2 µM
same,TGI,[19],48.8 µM
same,GI50,[20],24.8 µM
same,TGI,[20],91.1 µM
same,GI50,[21],40.4 µM
same,TGI,[21],> 100 µM
same,GI50,[22],35.8 µM
same,TGI,[22],> 100 µM
same,GI50,[23],48.9 µM
same,TGI,[23],> 100 µM
same,GI50,[24],20.6 µM
same,TGI,[24],76 µM
same,GI50,[25],16.7 µM
same,TGI,[25],40.3 µM
same,GI50,[26],41.8 µM
same,TGI,[26],> 100 µM
same,GI50,[27],22 µM
same,TGI,[27],> 100 µM
